According to US20140328882A1, “WHEAT GERM EXTRACT OBTAINED BY PROTEASE HYDROLYSIS AND MEDICAL USE THEREOF” (BIROPHARMA UK LTD, priority 2011, published 2014):

Test system: colon inflammation induced by 2,4,6 TNBS
Assay: Colon-inflammatory model induced by 2,4,6 TNBS in rats
Assay type: in vivo, Wistar (CD) male rats
Details: PABD 2 g/kg/day p.o., infliximab 3.0 mg/kg/day, SASP 50 mg/kg/day; for Body weight change (body weight relative to 100% before TNBS): 2,4,6 TNBS 10 mg/rat into colon, evaluated third day, TNBS alone 91.8%; for Seriousness of inflammation (0-11 scale) / Extension of mucous membrane lesions / TNF-α level: 2,4,6 TNBS 10 mg/rat, third day; for Seriousness of inflammation (0-11 scale): TNBS alone 7.6; for Extension of mucous membrane lesions: TNBS alone 60.2%; for TNF-α level: control 12.7, TNBS alone 420.4
Description: Examination of Anti-Inflammatory Effect in Colon-Inflammatory Model Induced by TNBS in the Case of Rats.
The 2,4,6 Trinitrobenzene-sulphonic-acid (2,4,6 TNBS) induction method represents well the pathological changes typical of patients suffering e.g. from Crohn's disease, so this model is well known and accepted in IBD-studies. The method described in Morris G. P. et al. “Hapten-induced model of chronic inflammation and ulceration in the rat colon” Gastroenterology 1989., 96(3); 795-803 was followed.
Examinations were made in Wistar (CD) male rats. Nr: 10-10/groups.
PABD powder was produced as described in Example 2; DH % of it's protein fraction was 20%.
2,4,6 TNBS=2,4,6 Trinitrobenzene-sulphonic-acid in solution.
During the method 2,4,6 TNBS (10 mg/rat) was introduced after 12 hours starving in aether-anaesthesia into the colon. Inflammation reach the maximum on the third day. The animals were sacrificed by cervalis dislocation and the results were evaluated.

**Q.** For O=C(O)c1cc(/N=N/c2ccc(S(=O)(=O)Nc3ccccn3)cc2)ccc1O [SASP, Sulfasalazine], which “Body weight change (body weight relative to 100% before TNBS)” value is on record?
**A.** 100.8%

**Q.** What about the “Seriousness of inflammation (0-11 scale)” value of the same compound?
**A.** 5.8

**Q.** What about the “Extension of mucous membrane lesions” value of the same compound?
**A.** 39.7%

**Q.** What about the TNF-α level of the same compound?
**A.** 236.1 pg/mg protein

**Q.** For “Infliximab: biologically active agent used in the treatment of IBD; comparator treatment”, which “Body weight change (body weight relative to 100% before TNBS)” value is on record?
**A.** 100.0%

**Q.** What about the “Seriousness of inflammation (0-11 scale)” value of the same compound?
**A.** 5.4

**Q.** What about the “Extension of mucous membrane lesions” value of the same compound?
**A.** 36.4%

**Q.** What about the TNF-α level of the same compound?
**A.** 212.0 pg/mg protein
